Measured values: patent publication US11834698B2, “Process for determining enzyme activity in a cell by activity-based reporter gene technology (ABRGT)” (INDIAN INSTITUTE OF SCIENCE EDUCATION AND RESEARCH, priority 2018, dated 2023)
Peptide text beside a SMILES is read from it. * marks the point of attachment. Cbz = O=C(OCc1ccccc1)*; CH2F = FC*

Biological target: T1, caspase-3 GFPspark (Homo sapiens, UniProt P42574)
T1 sequence (P42574 29-175 limits assumed): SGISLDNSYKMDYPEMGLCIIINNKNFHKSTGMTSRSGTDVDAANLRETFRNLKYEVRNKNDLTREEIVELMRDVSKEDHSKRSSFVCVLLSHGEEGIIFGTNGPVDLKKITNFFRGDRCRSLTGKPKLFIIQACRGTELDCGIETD
T1 sequence (P42574 176-277 limits assumed): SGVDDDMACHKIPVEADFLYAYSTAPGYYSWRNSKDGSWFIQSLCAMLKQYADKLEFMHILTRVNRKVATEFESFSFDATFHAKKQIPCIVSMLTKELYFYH
Test: AbRGT FRET imaging / acceptor photobleaching, caspase-3 GFPspark in MCF-7 cells
Assay type: cell-based
Parameters: host or cells: MCF-7, HeLa, HEK-293
Conditions: for effect of inhibitor on FRET signal: STS 4 h
Protocol: FIG. 2 depicts (a) a schematic representation of AbRGT in determining the specific activation of caspase-3 GFPspark tagged enzyme by FRET effect utilizing Rh-VAD-FMK (probe 1). (b) The fluorescence signal was collected in GFP, FRET and Rhodamine (Rh) channels. MCF-7 cells transfected with caspase-3 GFPspark treated with (i) 1 μM STS for 4 h or (ii) 1 μg/ml TRAIL for 5 h and then labelled with probe 1. (iii) Un-transfected MCF-7 cells were treated with 1 μM STS for 4 h and then labelled with the probe 1. MCF-7 cells transfected with enhanced green fluorescent protein (EGFP) plasmid treated (iv) with 1 μM STS or (v) without STS for 4 h and then labelled with probe 1, scale bar, […]. (c) FRET validation between GFPspark and rhodamine fluorophore using the acceptor photobleaching method. Images for GFP and rhodamine fluorescence signals were collected in GFP and FRET channels pre- and post-bleaching of rhodamine signals. (d) Quantification of change in GFP fluorescence intensity after rhodamine photo-bleaching in both unbleached control region and rhodamine bleached region, region of interest (ROI), area under the white square. Error bar represents the s.e.m for n=15 cells (*P<0.00001). Scale bar, 10 μm. a.u., arbitrary units.
FIGS. 6A and 6B depict time dependent activation of caspase-3 GFPspark in MCF-7 cells upon STS (1 μM) induction. MCF-7 cells transfected with 2 μg of caspase-3 GFPspark plasmid and treated with 1 μM of STS for 2, 6, and 8 h. Cells were then labelled with the probe 1 for an additional 2 h. […] FRET validation between GFPspark and rhodamine fluorophore using the acceptor photobleaching method for the MCF-7 cells with STS induction for 2, 6 and 8 h. I=intensity (a.u.), arbitrary units. The calculated FRET efficiency for 2, 6 and 8 h are 38, 43, and 36% respectively.
FIGS. 7A and 7B depict applying AbRGT for specific detection of active caspase-3 GFPspark using the Rh-DEVD-FMK (probe 2). Caspase-3 GFPspark (2 μg) overexpressing MCF-7 cells were treated with 1 μM of STS for 4 h and labelled with the probe 2 (1 μM). […] The rise in GFPspark intensity after rhodamine photobleaching in the background is insignificant as compared to the ROI, i.e., 68 a.u., with a calculated FRET efficiency of 35%.
FIG. 12 depicts confocal images of MCF-7 cells in GFP, FRET and Rh channel. Caspase-3 GFPspark transfected MCF-7 cells were treated with STS for 4 h and labelled (a) with or (b) without probe 1. Cells were pre-treated with (c) Z-VAD-FMK (50 μM) and (d) Q-VD-OPh (50 μM) pan-caspase inhibitors 3 h before the probe labelling.
Plasmids and transient transfection: GFPspark tagged plasmids; caspase-3 GFPspark tag (Cat: HG10050-ACG), caspase-7 GFPspark tag (HG10049-ACG), caspase-8 GFPspark (HG10078-ACG), caspase-9 GFPspark (HG11151-ACG) and cathepsin B GFPspark (HG10483-ACG) were procured from Sino Biological. For transfection, cells were seeded in a 6-well plate at a density of 0.4 million cells/well. At 60-70% confluency, cells were transiently transfected for 24 h at 37° C. with 1 μg of the GFPspark tagged plasmid DNA construct mixed with 5 μL of Lipofectamine 2000 (Invitrogen) according to the manufacturer's instructions. 24 h post-transfection, cells were visualized under the GFP filter for GFPspark expression under fluorescence microscope at 10× magnification.
Labelling of active caspases in apoptotic cells with FABP: After 24 h of transfection, cells were treated with STS (1 μM) drug or TRAIL (1 μg/ml) for apoptotic induction and incubated for 2, 4, 6 and 8 h at 37° C. in a humidified atmosphere of 5% CO2/95% air. Cells were gently scraped off from the surface at the end of apoptotic induction and centrifuged at 3000 rpm for 5 min. The cell pellet was resuspended in 300 μL of fresh DMEM containing 1 μM of probe for probe 2 and incubated for additional 2 h at 37° C. in a humidified atmosphere of 5% CO2. Cells were again centrifuged at 3000 rpm for 5 mins, and the supernatant was decanted. […]

[1] = MCF-7, inhibitor 50 μM pre-treatment before probe 1 labelling

Molecule | effect of inhibitor on FRET signal [1] | signal in Rh channel in presence of inhibitor [1] | calculated FRET efficiency (MCF-7, STS 1 μM 2 h) [%] | rise in GFP intensity after rhodamine photobleaching in ROI (MCF-7, STS 1 μM 4 h, probe 1 μM) [a.u.] | calculated FRET efficiency (MCF-7, STS 1 μM 4 h, probe 1 μM 2 h, acceptor photobleaching) [%] | calculated FRET efficiency (MCF-7, STS 1 μM 6 h) [%] | calculated FRET efficiency (MCF-7, STS 1 μM 8 h) [%]
COC(=O)C[C@H](NC(=O)[C@H](C)NC(=O)[C@@H](NC(=O)OCc1ccccc1)C(C)C)C(=O)CF [Z-VAD-FMK] (Cbz-Val-Ala-Asp(OMe)-CH2F) | completely abolished |  |  |  |  |  | 
CC(C)[C@H](NC(=O)c1ccc2ccccc2n1)C(=O)N[C@@H](CC(=O)O)C(=O)COc1c(F)cccc1F [Q-VD-OPh] | abolished | distinct punctate labelling was detected |  |  |  |  | 
Rhodamine-VAD-fluoromethyl ketone [probe 1] |  |  | 38 | 58±3 | 35±1 | 43 | 36
